This is an account of results in patent US20180207228A1, “PEPTIDE COMBINATIONS AND USES THEREOF FOR TREATING GRASS ALLERGY” (ALK-Abelló A/S, priority 2015, published 2018).

In data set [1] the test system is allergen specific T cells. The data set can be described thus: T cell proliferation assay (72 h) on donor derived T cell lines (TCL02/TCL03). Type of data set: cell-based, human. Conditions: reference peptides of WO2010/089554, proliferation only. A digest of the protocol: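 Overlapping 20-mer and selected 15-mer grass allergen peptides were screened for proliferation using TCL02 (day 24) or TCL03 (day 34) lines. Lines came from grass-allergic donors' CD8-depleted PBMCs, primed with natural allergen mix and expanded with irradiated autologous or allogeneic APCs, PHA-P 0.5 μg/ml and rIL-2.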

The subject of data set [2] is grass pollen allergic donor derived T cell lines. The data set can be described thus: Dose response titration in T cell proliferation assay. Type of data set: cell-based, human.
Description: The dose-response relationship was tested by measuring the percentage of donor response (i.e. the percentage of donor coverage) in concentrations of 2.0, 0.1, 0.005 and 0.00025 μg/ml for the peptide combinations and in concentrations of 2.0, 0.2, 0.02 and 0.002 μg/ml for single peptides. The donor response was determined using T cell proliferation data as described in Example 3.
Relative magnitude value for a peptide or a peptide combination was calculated as percentage of highest T cell response to an allergen or a mix, by the same donor. In this way, allergen or peptide combination with highest magnitude of T cell response gets a value of 100 and T cell response magnitude of remaining peptides/peptide combinations are normalized or calculated relative to 100, for example Relative magnitude=100*(T cell response magnitude of peptide or combination/Highest T cell response in a donor). Relative magnitude were calculated mainly on Phl p 1. For donors non reactive to Phl p 1, Phl p 5 was used as reference
The donors were selected by seeking to maximize the HLA class II diversity in the donor cohort.
For peptide combinations, two set-ups were used:
A) Concentrations of 2.0, 0.1, 0.005 and 0.00025 μg/ml were tested on a set of T cell lines derived from 9 grass pollen allergic donors (same experiment as the data shown in FIG. 7b.).
B) Concentrations of 2.0, 0.066, 0.0022 and 0.00007 μg/ml were used on a set of T cell lines derived from 18 grass pollen allergic donors (same set as the donors used for testing of single peptides as described above).
Relative magnitude value for a peptide or a peptide combination was calculated as percentage of highest T cell response to an allergen or a mix, by the same donor. In this way, allergen or peptide combination with highest magnitude of T cell response gets a value of 100 and T cell response magnitude of remaining peptides/peptide combinations are normalized or calculated relative to 100, for example Relative magnitude=100*(T cell response magnitude of peptide or combination/Highest T cell response in a donor). […]
Data set [3] has as its system grass allergic donor derived T cell lines (TCL-02 DK-2). The data set can be described thus: Cross-reactivity of homologue peptides, proliferation on TCL02-DK2 (Study XR1). Type of data set: cell-based, human. Conditions: for experimental cross-reactivity: 2 μg/ml, TCL02-DK2, 21 donors. As to the method: To measure the experimental cross-reactivity the proliferation assay of Example 3 was carried out on 21 grass allergic donors (TCL02-DK2). […] Cross-reactivity to Phleum pratense peptides with either close (Lolium perenne (Lol p)) or distant (Phalaris aquatica (Pha a), Cynodon dactylon (Cyn d)) species was experimentally investigated.
For analysing the cross-reactivity data, it was investigated if a donor responds to both native and homologue peptide, XY correlation plots were made where the donor responses to native peptides were plotted versus the donor responses to homologues. […] If less than five donors were responding to the parent peptides, then the data was considered to be in-conclusive, and were thus labelled with “-”. For some of the peptides the analysis was further supported by performing a Spearman r-Non Parametric test (data not shown).
Further the magnitude of T cell response from a parent peptide as defined herein and homologue response were plotted in a XY plot by using GraphPad Prism 6.
To measure the experimental cross-reactivity, the proliferation assay of Example 3 was carried out on 21 grass pollen allergic donors (TCL02-DK2, Study XR1) and 20 grass pollen allergic donors (TCL03−DK1+DK2, Study XR2). […] In Study XR1, Cross-reactivity to Phleum pratense peptides with either close (Lolium perenne-Lol p) or distant ([…]-Pha a, Cynodon dactylon-Cyn d) species was experimentally investigated. In Study XR1, 67 homologue peptides corresponding to 41 native Phleum pratense peptides were investigated together with the 41 Phleum pratense peptides at a concentration of 2 μg/ml. Similarly, study XR2 was carried out on 20 grass pollen allergic donors where donor derived TCL-03 lines were used to investigate Phleum pratense cross-reactivity to Poa pratensis (Poa p), Dactylis glomerata (Dac g), Festuca pratensis (Fes p), Paspalum notatum (Pas n), Sorghum halepense (Sor h), Lolium perenne (Lol p), Phalaris aquatica (Pha a) and Cynodon dactylon (Cyn d).

Data set [4] is described as follows: Peptide solubility by visual inspection. The class given is physicochemical. The protocol: Water (pH 3-5) • 2. 250 mM D-Mannitol and 25 mM sodium acetate, pH 4.5 • 3. 250 mM D-Mannitol and 25 mM sodium phosphate, pH 7.0 • 4. […] Water (pH 3-5) • 2. 250 mM D-Mannitol and 25 mM sodium acetate, pH 4.5 • 3. 250 mM D-Mannitol and 25 mM sodium phosphate, pH 7.0 • 4. […] A subset of the peptides was selected as candidate peptides for a final peptide mixture. […] During the solubility studies the peptide-containing solutions were inspected visually before and after filtration for turbidity, and presence of particles/aggregates. In addition, presence of turbidity/particles/aggregates was also detected by optical density (OD) or absorbance of filtered material, but might also be detected by size-exclusion chromatography. Furthermore, Sub-visual particles may also be detected by dynamic light scattering (DLS) analysis on filtered and non-filtered peptide containing solutions. Samples were furthermore subjected to centrifugation to allow for the possible visual inspection of pelleted material.

Data set [5] concerns grass pollen allergic donor derived TCL-03 lines. As to the kind of experiment: Extended cross-reactivity study, proliferation on TCL03 DK1+DK2 (Study XR2), scoring. Conditions: study XR2; for Cross-reactivity score, Dac g: homologue from Dac g; for Cross-reactivity score, Lol p: homologue from Lol p; for Cross-reactivity sum: scores of all species added; for Cross-reactivity/species: sum divided by the number of species measured. Type of data set: cell-based, human.

Data set [6] can be described thus: Extended solubility and short term stability study (visual, U-HPLC recovery, DLS, 90LS, UV-VIS, sum of scores). Conditions: for solubility: pH 4.5. The protocol: For that purpose, the peptides were provided as acetate salts (produced by Innovagen® at a >10 mg scale of manufacturing). To take into account batch-to-batch variations, some peptides were tested from other batches of the manufacturer Innovagen®, as well as from another manufacturer (Almac) and from in-house production. Solubility experiments were performed on peptide in solution in concentrations ranging from 0.5 mg/mL to 3 mg/mL (dry matter)—with the following solvents: • Water • Acetate buffer, pH 4.5 (25 mM sodium acetate containing 250 mM D-Mannitol) • Phosphate buffer, pH 7.0 (25 mM sodium phosphate containing 250 mM D-Mannitol) • Glycine buffer, pH 8.5 (25 mM glycine containing 250 mM D-Mannitol)
The solubility of the peptides was initially investigated by visual inspection and U-HPLC recovery. Visual inspection included assessment of turbidity and presence of particles/aggregates of each peptide solution before and after centrifugation as well as visual inspection of pelleted material. The visual inspection were reported as “clear solution”, “very small precipitation only visible with a magnifier”, “precipitation visible/turbid solution” or “more precipitation/turbid solution”. Filtration of peptide solutions were conducted using syringe based filters containing a polyethersulfone (PES) membrane chemistry and a pore size of 0.2 μm. The amount of the peptide in the supernatant of a filtered sample was determined using U-HPLC with reverse phase chromatography and recovery were determined as described in Example 5.
Peptide solutions were investigated at a time point of 1 hour after production, but were also repeated at later time point (e.g. 24. 48 or 96 hours) to investigate the stability of the peptides.
Peptide solutions were investigated to determine the presence of turbidity/particles/aggregates by use of optical density (OD) and change in UV-VIS absorbance at a wavelength of 320 nm, of the filtrate. […] In addition or as an alternative, the amount of the peptide in the supernatant of a filtered sample was determined using U-HPLC as described above, with the exception that the recovery was determined by dividing the peak area of the filtered sample in relation to the peak area in the original solution prior to filtration. See also Example 5 for further details regarding UV-VIS, and recovery measured by U-HPLC.
The peptides were scored in relation to the outcome of the above mentioned tests: For each peptide in a given buffer and at a given concentration, a sum of test scores was calculated and the sum used to rank the peptides according to solubility: • 1. […] DLS peak 1 number 3 nm gave a score of 1, 3-10 nm gave a score of 2, 10-100 nm gave a score of 3, >100 nm gave a score of 4. • 5. 90LS at 400 nm: Intensity <450 gave a score of 1, <800 gave a score of 2, >800 gave a score of 3. • 6. UV-VIS change in absorbance at 320 nm within 24 hours: 0.01 gave a score of 1, ≤0.05 gave a score of 2, 0.0.2 gave a score of 3 and >0.2 gave a score of 4.

Entries after “also recorded” stand apart in the source; their conditions may differ. Where no end group is shown, it is not given here.

`CC[C@H](C)[C@H](NC(=O)[C@H](C)NC(=O)[C@H](CCCCN)NC(=O)[C@@H](NC(=O)[C@H](CC(C)C)NC(=O)[C@H](C)NC(=O)[C@H](C)NC(=O)[C@H](CCC(=O)O)NC(=O)[C@H](Cc1ccccc1)NC(=O)[C@@H](NC(=O)[C@H](C)NC(=O)[C@H](Cc1ccc(O)cc1)NC(=O)[C@H](CCCCN)NC(=O)[C@@H](NC(=O)[C@H](CCC(=O)O)NC(=O)[C@@H]1CCCN1C(=O)[C@@H](N)CCCCN)C(C)C)C(C)C)[C@@H](C)O)C(=O)N[C@H](C(=O)O)[C@@H](C)O` [peptide 142]: the average relative magnitude entry in data set [1] is on record as “around 8”. Also, the “donor coverage, dose response of single peptides” value in data set [2] (0.002 μg/ml, 25 donor derived T cell lines) is reported as ~35%. Further, in data set [2] (single peptides, FIG. 21), the “average relative magnitude calculated over all donors” value is reported as “in the same range”.

For the compound AYRTAATAANAAPAN-OH [compound 353], in data set [3] (homologue of peptide 241 (Phl p 5), Table 51, based on results from Study XR1 (score 5 upgraded to 7)), the Cross-reactivity score amounted to 7. Moreover, in data set [3] (homologues of peptide 241, Study XR1), the cross-reactivity of homologue entry is reported as “very high cross-reactivity”.

On to EAKYDAYVATLSEALRIIAG-OH [peptide 233], for which, in data set [3], the experimental cross-reactivity entry was “showed cross-reactivity; also recorded: good cross reactivity”.

With GFKAALAAAAGVPPADKYRT-OH [peptide 230], the experimental cross-reactivity result in data set [3] was “showed cross-reactivity”.

As for GRGSGSSFEIKSTKPEASSG-OH [compound 202], the experimental cross-reactivity entry in data set [3] is on record as “showed cross-reactivity”.

On to GSDPKKLVLNIKYTRPGDSL-OH [peptide 217], for which the “solubility, 1st round of solubility screening” value in data set [4] is on record as “soluble”. Further, in data set [4] (3 mg/mL, acetate salt, non-filtered, 250 mM D-Mannitol and 25 mM sodium acetate, pH 4.5), the “Visual inspection after 60 min pH 4.5” value is “+ particles”. The “Visual inspection after centrifugation pH 4.5” value in data set [4] (3 mg/mL, acetate salt, non-filtered, 250 mM D-Mannitol and 25 mM sodium acetate, pH 4.5, after centrifugation) is “Ok”. For the same compound, in data set [4] (3 mg/mL, acetate salt, non-filtered, 250 mM D-Mannitol and 25 mM sodium phosphate, pH 7.0), the “Visual inspection after 60 min pH 7” value is reported as “particles +”. The “Visual inspection after centrifugation pH 7” value in data set [4] (3 mg/mL, acetate salt, non-filtered, 250 mM D-Mannitol and 25 mM sodium phosphate, pH 7.0, after centrifugation) is listed as “++”. For the same compound, the experimental cross-reactivity result in data set [3] is listed as “showed cross-reactivity”. Also, in data set [5] (score 0 to 7), the “Cross-reactivity score, Dac g” value stood at 1 and the “Cross-reactivity score, Lol p” value turned out to be 5. Also, in data set [5], the Cross-reactivity sum came out at 6 and the Cross-reactivity/species was 3. In data set [6], the “solubility in all the test samples (concentrations and pH tested), all solubility tests” value is “good solubility”; the “solubility in aqueous solutions and short-term stability” value is “sufficiently soluble”; the solubility result was “acceptable solubility”.

Take HGSEEWEPLTKKGNVWEVKS-OH [compound 218]: the experimental cross-reactivity entry in data set [3] is listed as “showed cross-reactivity”.

Take KDKWIELKESWGAIWRIDTP-OH [peptide 210]: the experimental cross-reactivity entry in data set [3] is listed as “showed cross-reactivity”.

As to TKKGNVWEVKSSKPLVGPFN-OH [peptide 219], in data set [3], the experimental cross-reactivity entry was “showed cross-reactivity”.

Turning to YHFDLSGHAFGAMAKKGDEQ-OH [peptide 205], the “solubility, 1st round of solubility screening” value in data set [4] is reported as “soluble”. In addition, the experimental cross-reactivity result in data set [3] is given as “showed cross-reactivity”. Besides, the “Cross-reactivity score, Cyn d” value in data set [5] (homologue from Cyn d, score 0 to 7) came out at 2. Further, in data set [5] (score 0 to 7), the “Cross-reactivity score, Dac g” value is 7 and the “Cross-reactivity score, Lol p” value turned out to be 7. In addition, the “Cross-reactivity score, Fes p” value in data set [5] (homologue from Fes p, score 0 to 7) is reported as 7. The “Cross-reactivity score, Pha a” value in data set [5] (homologue from Pha a, score 0 to 7) worked out at 6. Further, the “Cross-reactivity score, Poa p” value in data set [5] (homologue from Poa p, score 0 to 7) is reported as 3. In addition, in data set [5] (homologue from Sor h, score 0 to 7), the “Cross-reactivity score, Sor h” value is reported as 7. In data set [5], this compound returned a Cross-reactivity sum of 39 and a Cross-reactivity/species of 5. In data set [6], the “solubility in all the test samples (concentrations and pH tested), all solubility tests” value is given as “good solubility”; the “solubility in aqueous solutions and short-term stability” value is on record as “sufficiently soluble”; the solubility entry was “acceptable solubility”.
